Experimental data from patent US11802127B2, “3,4-dihydro-2,7-naphthyridine-1,6(2H,7H)-diones as MEK inhibitors” (Pfizer Inc., priority 2021, dated 2023).
Structures can show the parent of a compound that is named as a salt.

How the values were obtained:
[1] = tested on: ERK1/2(Thr202/Tyr204) phosphorylation (MEK-dependent) in A375 cells; test: Cellular Phospho-p44/42 MAPK (Erk1/2) (Thr202/Tyr204) Assay; assay type: cell-based; details: Homo sapiens, A-375, 1-hour incubation, pERK1/2 (Thr202/Tyr204) In-Cell Western normalized to GAPDH
Outline: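 A375 cells exposed 1 h to 10-point 1:3 dilutions (top 20–1 μM, 0.5% DMSO), then fixed and stained for pERK1/2 (Thr202/Tyr204) by In-Cell Western. Signal normalized to GAPDH per well; DMSO and 1 μM reference inhibitor define 0 and 100% inhibition.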

BCRP (hBCRP) = biological target: T1, BCRP (hBCRP) (Homo sapiens, UniProt Q9UNQ0); test: Efflux ratio in BCRP transfected MDCKII canine P-gp knockout cells; assay type: in vitro ADME; details: Papp(B−A)/Papp(A−B), read-out: Efflux ratio MDCKII-hBCRP knock-in,canine pg-P KO
T1 construct: expressed in transfected cells; host or cells: MDCKII (canine kidney) cells, canine P-gp knockout, transfected with BCRP
T1 sequence (Q9UNQ0 1-655): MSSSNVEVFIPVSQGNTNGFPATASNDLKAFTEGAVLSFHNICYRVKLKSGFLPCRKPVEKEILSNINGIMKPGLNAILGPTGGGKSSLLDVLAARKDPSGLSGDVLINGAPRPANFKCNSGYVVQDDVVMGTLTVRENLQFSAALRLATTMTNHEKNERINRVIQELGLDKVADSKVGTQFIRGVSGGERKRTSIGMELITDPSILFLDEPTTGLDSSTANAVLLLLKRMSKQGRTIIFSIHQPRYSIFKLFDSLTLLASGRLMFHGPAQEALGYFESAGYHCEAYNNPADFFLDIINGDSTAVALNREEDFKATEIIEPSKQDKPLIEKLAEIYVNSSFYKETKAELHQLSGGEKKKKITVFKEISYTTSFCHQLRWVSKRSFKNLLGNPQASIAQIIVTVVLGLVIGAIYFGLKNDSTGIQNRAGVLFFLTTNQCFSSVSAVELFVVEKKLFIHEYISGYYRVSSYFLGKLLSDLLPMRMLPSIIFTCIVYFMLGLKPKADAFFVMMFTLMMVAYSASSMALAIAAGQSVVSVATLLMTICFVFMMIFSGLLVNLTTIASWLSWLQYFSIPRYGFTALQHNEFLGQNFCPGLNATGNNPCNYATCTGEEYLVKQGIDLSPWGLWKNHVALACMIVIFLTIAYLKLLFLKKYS
Outline: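 Test article at 1 μM final (1% organic) in A→B and B→A directions across MDCKII P-gp knockout monolayers expressing BCRP, 2 h at 37° C., triplicate; lucifer yellow checked monolayer integrity. Concentrations by LC-MS/MS against labetalol internal standard; efflux ratio = Papp(B−A)/Papp(A−B).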

P-gp (MDR1) = biological target: T2, P-gp (MDR1) (Homo sapiens, UniProt P08183); test: Efflux ratio in MDR1 transfected LLC-PK1 cells; assay type: in vitro ADME; details: pig, Papp(B−A)/Papp(A−B)
T2 construct: expressed in transfected cells; host or cells: LLC-PK1 (porcine kidney) cells transfected with MDR1
Protocol: (§1) Both LLC-PK1 and MDR1 transfected LLC-PK1 cells were cultured and plated according to manufacturer's recommendations with the exception that the passage media contained only 2% fetal bovine serum to extend passage time out to seven days.
(§2) Both positive and negative controls were used to assess functionality of P-gp or BCRP efflux in the assays. Stock solutions for assay controls and the test article were prepared in DMSO for final test concentrations of 10 and 1 μM, respectively. Final organic concentration in the assay was 1%. All dosing solutions contained 10 μM lucifer yellow to monitor LLC-PK1 or MDCKII cell monolayer integrity.
(§3) For the apical to basolateral determination (A to B), 75 μL of the test article in transport buffer were added to the apical side of the individual transwells and 250 μL of basolateral media, without compound or lucifer yellow, were added to each well. For the basolateral to apical determination (B to A), 250 μL of test article in transport buffer were added to each well and 75 μL transport buffer, without compound or lucifer yellow, were added to each transwell. All tests were performed in triplicate, and each compound was tested for both apical to basolateral and basolateral to apical transport. The plates were incubated for 2 hours on a Lab-Line Instruments Titer Orbital Shaker (VWR, West Chester, PA) at 50 rpm and 37° C. with 5% CO2. All culture plates were removed from the incubator and 50 μL of media were removed from the apical and basolateral portion of each well and added to 150 μL of 1 μM labetalol in 2:1 acetonitrile (acetonitrile): H2O, v/v.
(§4) The plates were read using a Molecular Devices (Sunnyvale, CA) Gemini Fluorometer to evaluate the lucifer yellow concentrations at excitation/emission wavelengths of 425/535 nm. These values were accepted when found to be below 2% for apical to basolateral and 5% basolateral to apical flux across the MDR1-transfected LLC-PK1 or BCRP-transfected MDCKII cell monolayers. The plates were sealed and the contents of each well analyzed by LC-MS/MS. The compound concentrations were determined from the ratio of the peak areas of the compound to the internal standard (labetalol) in comparison to the dosing solution.
(§5) The LC-MS/MS system was comprised of an HTS-PAL autosampler (Leap Technologies, Carrboro, NC), an HP1200 HPLC (Agilent, Palo Alto, CA), and a MDS Sciex 4000 Q Trap system (Applied Biosystems, Foster City, CA). […] The total run time, including re-equilibration, for a single injection was 1.2 minutes. Mass spectrometric detection of the analytes was accomplished using the ion spray positive mode. Analyte responses were measured by multiple reaction monitoring (MRM) of transitions unique to each compound (the protonated precursor ion and selected product ions for each test article and m/z 329 to m/z 162 for labetalol, the internal standard).
An efflux ratio is calculated from the mean apical to basolateral (A−B) Papp data and basolateral to apical (B−A) Papp data: Efflux ratio=Papp(B−A)/Papp(A−B)

[2] = MDR1 LLC-PK1 and BCRP MDCKII Permeability Assay: permeability coefficient (Papp); assay type: in vitro ADME; details: MDCK, test article 1 μM, 37° C.
Protocol: as §1
BCRP transfected MDCKII canine P-gp knockout cell line was cultured and plated according to manufacturer's recommendations.
as §2, §3, §4, §5

T2 sequence (P08183 whole entry): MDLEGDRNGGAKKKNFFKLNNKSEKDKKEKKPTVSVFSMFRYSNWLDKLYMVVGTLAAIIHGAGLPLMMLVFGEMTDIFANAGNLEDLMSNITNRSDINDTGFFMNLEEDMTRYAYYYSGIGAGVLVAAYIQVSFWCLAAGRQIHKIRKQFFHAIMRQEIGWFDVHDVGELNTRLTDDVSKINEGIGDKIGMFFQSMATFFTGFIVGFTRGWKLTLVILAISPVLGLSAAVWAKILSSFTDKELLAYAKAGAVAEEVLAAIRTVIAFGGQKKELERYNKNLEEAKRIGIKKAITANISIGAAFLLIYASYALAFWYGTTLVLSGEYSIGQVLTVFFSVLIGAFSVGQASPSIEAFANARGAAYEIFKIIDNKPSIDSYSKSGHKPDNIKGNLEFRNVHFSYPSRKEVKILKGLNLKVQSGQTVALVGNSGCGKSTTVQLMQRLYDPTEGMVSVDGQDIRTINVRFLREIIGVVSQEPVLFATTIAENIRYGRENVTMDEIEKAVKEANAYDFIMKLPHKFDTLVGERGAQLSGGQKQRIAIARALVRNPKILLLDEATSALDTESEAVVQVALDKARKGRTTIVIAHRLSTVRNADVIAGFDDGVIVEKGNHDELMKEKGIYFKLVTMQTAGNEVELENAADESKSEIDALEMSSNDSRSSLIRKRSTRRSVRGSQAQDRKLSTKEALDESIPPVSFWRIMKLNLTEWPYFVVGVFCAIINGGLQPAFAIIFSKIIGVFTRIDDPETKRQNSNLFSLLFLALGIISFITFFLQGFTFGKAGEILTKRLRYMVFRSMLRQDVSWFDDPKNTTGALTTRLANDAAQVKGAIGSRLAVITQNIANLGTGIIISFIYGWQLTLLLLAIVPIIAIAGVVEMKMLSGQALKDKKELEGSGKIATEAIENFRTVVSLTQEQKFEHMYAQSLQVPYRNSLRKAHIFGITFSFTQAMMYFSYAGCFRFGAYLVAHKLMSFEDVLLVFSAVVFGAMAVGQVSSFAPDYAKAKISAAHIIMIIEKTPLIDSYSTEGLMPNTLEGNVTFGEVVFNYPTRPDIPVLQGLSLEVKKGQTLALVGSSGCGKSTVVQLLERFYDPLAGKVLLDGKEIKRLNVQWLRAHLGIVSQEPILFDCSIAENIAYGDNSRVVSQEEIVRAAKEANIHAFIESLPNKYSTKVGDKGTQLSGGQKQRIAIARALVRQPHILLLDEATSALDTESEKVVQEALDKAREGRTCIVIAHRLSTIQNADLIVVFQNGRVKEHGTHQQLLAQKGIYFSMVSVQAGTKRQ

Structure (SMILES)	efflux ratio at 2 h, 1 μM (BCRP (hBCRP))	efflux ratio at 2 h, 1 μM (P-gp (MDR1))	Papp at 2 h, 1 μM [2] [×10⁻⁶ cm/s]	IC50 [1] [nM]
Cn1c(Nc2ccc(Br)cc2F)c2c(c(F)c1=O)CCN(OCCO)C2=O [Example 39, 8-((4-bromo-2-fluorophenyl)amino)-5-fluoro-2-(2-hydroxyethoxy)-7-methyl-3,4-dihydro-2,7-naphthyridine-1,6(2H,7H)-dione]	3.2	3.9	32.3	62
Cn1c(Nc2ccc(Br)cc2F)c2c(c(Br)c1=O)CCN(OCCO)C2=O [Example 42, 5-bromo-8-((4-bromo-2-fluorophenyl)amino)-2-(2-hydroxyethoxy)-7-methyl-3,4-dihydro-2,7-naphthyridine-1,6(2H,7H)-dione]	3.3	2.8	29.4	143
CCc1ccc(Nc2c3c(c(C)c(=O)n2C)CCN(OCCO)C3=O)c(F)c1 [Example 44, 8-((4-ethyl-2-fluorophenyl)amino)-2-(2-hydroxyethoxy)-5,7-dimethyl-3,4-dihydro-2,7-naphthyridine-1,6(2H,7H)-dione]	2.7	1.1	33	13
Cn1c(Nc2ccc(I)cc2F)c2c(cc1=O)CCNC2=O [Example 49, 8-((4-iodo-2-fluorophenyl)amino)-7-methyl-3,4-dihydro-2,7-naphthyridine-1,6(2H,7H)-dione trifluoroacetate]	1	1.4	39.3	2
CSc1ccc(Nc2c3c(cc(=O)n2C)CCNC3=O)c(F)c1 [Example 50, 8-((2-fluoro-4-(methylthio)phenyl)amino)-7-methyl-3,4-dihydro-2,7-naphthyridine-1,6(2H,7H)-dione trifluoroacetate]	1.3	1.2	36.7	12
CCc1ccc(Nc2c3c(cc(=O)n2C)CCNC3=O)c(F)c1 [Example 51, 8-((4-ethyl-2-fluorophenyl)amino)-7-methyl-3,4-dihydro-2,7-naphthyridine-1,6(2H,7H)-dione]	1.2	1.2	41.2	26

Further lines, with some results ahead:

efflux ratio at 2 h, 1 μM (BCRP (hBCRP))	efflux ratio at 2 h, 1 μM (P-gp (MDR1))	Papp at 2 h, 1 μM [2] [×10⁻⁶ cm/s]	Structure (SMILES)	IC50 [1] [nM]
2.9	4.5	24.6	Cn1c(Nc2ccc(I)cc2F)c2c(c(Cl)c1=O)CCN(OCCO)C2=O [Example 38, 5-chloro-8-((2-fluoro-4-iodophenyl)amino)-2-(2-hydroxyethoxy)-7-methyl-3,4-dihydro-2,7-naphthyridine-1,6(2H,7H)-dione]	7
1.9	3.6	28.4	Cc1c2c(c(Nc3ccc(I)cc3F)n(C)c1=O)C(=O)N(OCCO)CC2 [Example 40, 8-((2-fluoro-4-iodophenyl)amino)-2-(2-hydroxyethoxy)-5,7-dimethyl-3,4-dihydro-2,7-naphthyridine-1,6(2H,7H)-dione]	4
1.3	2.2	31.8	Cc1c2c(c(Nc3ccc(C4CC4)cc3F)n(C)c1=O)C(=O)N(OCCO)CC2 [Example 45, 8-((4-cyclopropyl-2-fluorophenyl)amino)-2-(2-hydroxyethoxy)-5,7-dimethyl-3,4-dihydro-2,7-naphthyridine-1,6(2H,7H)-dione]	20
1	1.4	16.2	Cc1c2c(c(Nc3ccc(I)cc3F)n(C)c1=O)C(=O)NCC2 [Example 48, 8-((2-fluoro-4-iodophenyl)amino)-5,7-dimethyl-3,4-dihydro-2,7-naphthyridine-1,6(2H,7H)-dione]	6
1.2	1.3	36.8	Cn1c(Nc2ccc(C3CC3)cc2F)c2c(cc1=O)CCNC2=O [Example 52, 8-((4-cyclopropyl-2-fluorophenyl)amino)-7-methyl-3,4-dihydro-2,7-naphthyridine-1,6(2H,7H)-dione]	30
